{
  "source": "patent US10028913B2",
  "about": "“Liposomal pharmaceutical preparation and method for manufacturing the same” (priority 2006, dated 2018)",
  "key": {"[1]": {"tested_on": "L1210 ascitic tumor", "experiment": "Treatment effects of liposomal mitoxantrone with different size on L1210 ascitic tumor", "type": "in vivo, BDF1 mice", "conditions": "4 mg/kg, 60 days observation", "text": "(§1) Ascitic tumor BDF1 mice which were inoculated with L1210 ascitic tumor cells 7 days ago were executed by decollation, and milky viscous ascitic fluid was extracted under aseptic condition and diluted by RPMI 1640 medium. After dilution, the tumor cell number was adjusted to 2.5×10^6 cells/ml. […] After inoculation, the cells in the residual tumor cell suspension were counted under light microscope, and living tumor cells were greater than 95%.\nAfter administration, the mice were bred normally. Their body weights were measured 3 times per week, the death time of each mouse was observed and recorded, and survival time was calculated. Mean survival time (MST) and median survival time were employed to evaluate the survival time of each group. Experimental observation was kept for 60 days after the inoculation.\nThe experimental scheme and data process mode were the same as Example 19. […] The administration dosage for mice in each group was 4 mg/kg."}, "[2]": {"experiment": "Pharmacokinetics of PLM60 and FM in Kunming mice (plasma level of mitoxantrone)", "type": "in vivo", "conditions": "2 mg/kg, tail vein", "description": "This example was conducted in male Kunming mice with a body weight of about 20 g. Different dose levels of mitoxantrone were injected through tail vein in mice. […] Plasma samples were taken at different time points. The methods for processing and detecting plasma samples were described in the document: Methods in enzymology, Vol: 391, p176-185."}, "[3]": {"tested_on": "C57 mice", "experiment": "Toxicity comparison of liposome formulations with different sizes", "type": "in vivo", "description": "The dose was 9 mg/kg. […] In mice of FM group, the body weight decreased over 30% and about 20% mice died."}, "[4]": {"conditions": "two dissociable groups at physiological pH; cited from earlier work"}, "[5]": {"tested_on": "Kunming mice", "experiment": "Acute toxicity comparison of PLM60 and FM to Kunming mice", "type": "in vivo", "text": "Mice of groups 1-5 were administrated with different dose levels of FM, while mice of groups 6-10 were administrated with an equivalent dose level of liposomal drug. […] The dead animals were dissected and autopsied."}, "[6]": {"experiment": "Tissue distribution in S-180 tumor-bearing mice", "type": "in vivo", "conditions": "male, Kunming, mouse, intravenous, 4 mg/kg i.v.; for concentration at 1 h: t 1 h; for concentration at 4 h: t 4 h; for concentration at 8 h: t 8 h; for concentration at 24 h: t 24 h", "description": "There were obvious differences in tissue distribution between PLM60 and FM in tumor-bearing mice. Male Kunming mice having a body weight about 20 g were used in the present example. […] Drugs were injected through vein in mice when tumor grew to 0.4-0.7 g. After the administration of drugs, mice were executed at various time points and their tissues were taken out to determine the concentration of mitoxantrone. The tissues included hearts, livers, spleens, lungs, kidneys, intestines, bone marrow and tumors."}, "[7]": {"tested_on": "S180 solid tumor", "experiment": "Treatment effects on S-180 sarcoma solid tumor", "type": "in vivo, KM mice", "conditions": "21st day after inoculation", "description": "as §1, with “Ascitic tumor-bearing” for “Ascitic tumor BDF1”, “with S180” for “with L1210 ascitic”, “extracted” for “extracted under aseptic condition”, “diluted with” for “diluted by”, “95%. The number of inoculated mice was 80.” for “95%.”\nThe mice were administered by intravenous injection.\nThe mice were bred normally after administration. Tumor diameters were measured by vernier caliper 3 times per week, and body weights were measured at the same time. Tumor volume (TV) was calculated with the following formula: V=½×a×b2, in which a and b represent length and width, respectively. The tumor volumes were calculated by using the measurement results. Mice were executed by decollation on the 21st day after inoculation, tumors were taken out and weighed. […] The experimental result was tested by t-test."}, "[8]": {"conditions": "heart, read-out: concentration of mitoxantrone in Heart"}, "[9]": {"conditions": "intestine, read-out: concentration of mitoxantrone in Intestine"}, "[10]": {"conditions": "kidney, read-out: concentration of mitoxantrone in Kidney"}, "[11]": {"conditions": "liver, read-out: concentration of mitoxantrone in Liver"}, "[12]": {"conditions": "lung, read-out: concentration of mitoxantrone in Lung"}, "[13]": {"conditions": "spleen, read-out: concentration of mitoxantrone in Spleen"}, "[14]": {"conditions": "tumor, read-out: concentration of mitoxantrone in Tumor"}},
  "note": "Where “and” joins values, the source holds several entries; their conditions need not be identical. Equal values may be shown once. Read-outs that look alike come from different tables or passages of the source.",
  "data": [
    {"compound": "O=C1c2c(O)ccc(O)c2C(=O)c2c(NCCNCCO)ccc(NCCNCCO)c21", "note": "[FM, mitoxantrone]", "values": [
      {"measurement": "Mean survival time", "setting": "[1]", "value": "38.67 ± 3.54"},
      {"measurement": "Median survival time", "setting": "[1]", "value": "36.00 ± 6.06"},
      {"measurement": "Survival rate", "setting": "[1]", "value": 33.33, "unit": "%"},
      {"measurement": "AUMC 0-48", "setting": "[2]", "value": 0.103},
      {"measurement": "AUMC 0-∞", "setting": "[2]", "value": 0.135},
      {"measurement": "AUC(0-inf)", "setting": "[2]; male, Kunming, mouse, iv", "value": 199, "unit": "ng·h/mL"},
      {"measurement": "Cmax", "setting": "[2]; male, Kunming, mouse, iv", "value": 699, "unit": "ng/mL"},
      {"measurement": "Tmax", "setting": "[2]; male, Kunming, mouse, iv", "value": 4.98, "unit": "min"},
      {"measurement": "AUC(0-t)", "setting": "[2]; male, Kunming, mouse, iv, read-out: AUC 0-48", "value": 198, "unit": "ng·h/mL"},
      {"measurement": "MRT last", "setting": "[2]; male, Kunming, mouse, iv, read-out: MRT 0-48", "value": 31, "unit": "min"},
      {"measurement": "MRT inf", "setting": "[2]; male, Kunming, mouse, iv, read-out: MRT 0-∞", "value": 40.5, "unit": "min"},
      {"measurement": "mice died", "setting": "[3]; male C57 mice, FM group", "value": "about 20%"},
      {"measurement": "body weight decrease", "setting": "[3]; mouse, in vivo", "value": "over 30%"},
      {"measurement": "pKa", "setting": "[4]", "value": 8.15},
      {"measurement": "Survival time of mice (male / female), individual animals", "setting": "[5]; dose 12 mg/kg", "value": "18 day (4×) and 13 day (3×)"},
      {"measurement": "Survival time of mice (male / female), individual animals", "setting": "[5]; dose 20 mg/kg", "value": "7 day (4×) and 8 day (3×)"},
      {"measurement": "concentration at 1 h", "setting": "[6]; bone marrow, read-out: concentration of mitoxantrone in Bone marrow", "value": 127, "unit": "ng/g"},
      {"measurement": "concentration at 1 h", "setting": "[6]; [8]", "value": 5380, "unit": "ng/g"},
      {"measurement": "concentration at 4 h", "setting": "[6]; [8]", "value": 3520, "unit": "ng/g"},
      {"measurement": "concentration at 8 h", "setting": "[6]; [8]", "value": 3200, "unit": "ng/g"},
      {"measurement": "concentration at 24 h", "setting": "[6]; [8]", "value": 2940, "unit": "ng/g"},
      {"measurement": "concentration at 1 h", "setting": "[6]; [9]", "value": 1530, "unit": "ng/g"},
      {"measurement": "concentration at 4 h", "setting": "[6]; [9]", "value": 2140, "unit": "ng/g"},
      {"measurement": "concentration at 8 h", "setting": "[6]; [9]", "value": 2550, "unit": "ng/g"},
      {"measurement": "concentration at 24 h", "setting": "[6]; [9]", "value": 3940, "unit": "ng/g"},
      {"measurement": "concentration at 1 h", "setting": "[6]; [10]", "value": 18200, "unit": "ng/g"},
      {"measurement": "concentration at 4 h", "setting": "[6]; [10]", "value": 17200, "unit": "ng/g"},
      {"measurement": "concentration at 8 h", "setting": "[6]; [10]", "value": 13400, "unit": "ng/g"},
      {"measurement": "concentration at 24 h", "setting": "[6]; [10]", "value": 7460, "unit": "ng/g"},
      {"measurement": "concentration at 1 h", "setting": "[6]; [11]", "value": 4770, "unit": "ng/g"},
      {"measurement": "concentration at 4 h", "setting": "[6]; [11]", "value": 3560, "unit": "ng/g"},
      {"measurement": "concentration at 8 h", "setting": "[6]; [11]", "value": 2660, "unit": "ng/g"},
      {"measurement": "concentration at 24 h", "setting": "[6]; [11]", "value": 1940, "unit": "ng/g"},
      {"measurement": "concentration at 1 h", "setting": "[6]; [12]", "value": 10200, "unit": "ng/g"},
      {"measurement": "concentration at 4 h", "setting": "[6]; [12]", "value": 8020, "unit": "ng/g"},
      {"measurement": "concentration at 8 h", "setting": "[6]; [12]", "value": 7020, "unit": "ng/g"},
      {"measurement": "concentration at 24 h", "setting": "[6]; [12]", "value": 8080, "unit": "ng/g"},
      {"measurement": "concentration at 1 h", "setting": "[6]; [13]", "value": 4040, "unit": "ng/g"},
      {"measurement": "concentration at 4 h", "setting": "[6]; [13]", "value": 4460, "unit": "ng/g"},
      {"measurement": "concentration at 8 h", "setting": "[6]; [13]", "value": 3770, "unit": "ng/g"},
      {"measurement": "concentration at 24 h", "setting": "[6]; [13]", "value": 7750, "unit": "ng/g"},
      {"measurement": "concentration at 1 h", "setting": "[6]; [14]", "value": 61.4, "unit": "ng/g"},
      {"measurement": "concentration at 4 h", "setting": "[6]; [14]", "value": 13.3, "unit": "ng/g"},
      {"measurement": "Weight of tumor", "setting": "[7]; 4 mg/kg i.v.", "value": "2828.5 ± 1067.8", "unit": "mg"},
      {"measurement": "Ratio of tumor-inhibiting", "setting": "[7]; 6 mg/kg i.v.", "value": 18.50, "unit": "%"},
      {"measurement": "Weight of tumor", "setting": "[7]; 6 mg/kg i.v.", "value": "2293.3 ± 1720.0", "unit": "mg"}
    ]}
  ]
}
